# From patent US20080108685A1, “Novel Use for Alpha Sympathomimetics Having a 2-Imidazoline Structure” (priority 2004, published 2008)
# Where two headings read alike, the source gives them in different places.
# Assays:
# HRV 14 [1] = test: plaque reduction assay, HeLa cells infected with HRV 14; type: cell-based, human rhinovirus; conditions: for Plaque reduction rel. inhibition: HRV 14, HeLa cells, M.O.I. 0.0004; for Rel. total inhibition: HRV 14, plaque reduction and residual infectiousness combined
# HRV 14 [2] = test: residual infectiousness (TCID50/ml) by virus titration, HeLa cells infected with HRV 14; type: cell-based, human rhinovirus; conditions: HRV 14, HeLa cells
# HRV 14 [3] = test: high-throughput cytopathic effect inhibitory assay (CPE), HeLa cells infected with HRV 14; type: cell-based, human rhinovirus; conditions: HRV 14, HeLa cells, second series of experiments
# HRV 2 = type: cell-based, human rhinovirus; conditions: HRV 2, HeLa cells, 72 hours after infection
# influenza A virus = type: cell-based; conditions: MDCK cells
# MDCK cells = conditions: dog
# [4] = dilution 1:2 of 0.003125% (W/V)
# [5] = dilution 1:4 of 0.003125% (W/V)
# [6] = dilution 1:8 of 0.003125% (W/V)
# [7] = dilution 1:16 of 0.003125% (W/V)
# [8] = dilution 1:32 of 0.003125% (W/V)
smiles,measurement,setting,value
Cc1cc(C(C)(C)C)c(O)c(C)c1CC1=NCCN1 [oxymetazoline],Plaque reduction rel. inhibition,HRV 14 [1]; [4],44.26%
same,Plaque reduction rel. inhibition,HRV 14 [1]; [5],32.98%
same,Plaque reduction rel. inhibition,HRV 14 [1]; [6],25.74%
same,Plaque reduction rel. inhibition,HRV 14 [1]; [7],17.66%
same,Plaque reduction rel. inhibition,HRV 14 [1]; [8],14.26%
same,Rel. total inhibition,HRV 14 [1]; [4],38.79
same,Rel. total inhibition,HRV 14 [1]; [5],26.91
same,Rel. total inhibition,HRV 14 [1]; [6],22.25
same,Rel. total inhibition,HRV 14 [1]; [7],18.20
same,Rel. total inhibition,HRV 14 [1]; [8],13.38
same,Residual infectiousness rel. inhibition,HRV 14 [2]; [4],33.33%
same,Residual infectiousness rel. inhibition,HRV 14 [2]; [5],20.83%
same,Residual infectiousness rel. inhibition,HRV 14 [2]; [6],18.75%
same,Residual infectiousness rel. inhibition,HRV 14 [2]; [7],18.75%
same,Residual infectiousness rel. inhibition,HRV 14 [2]; [8],12.50%
same,CPE inhibition,HRV 14 [3]; [4],50.5%
same,CPE inhibition,HRV 14 [3]; [5],53.6%
same,CPE inhibition,HRV 14 [3]; [6],37.5%
same,CPE inhibition,HRV 14 [3]; [7],5.9%
same,CPE inhibition,HRV 2; [4],40.5%
same,CPE inhibition,HRV 2; [5],23.2%
same,CPE inhibition,influenza A virus; dilution 1:2 of 0.005% (W/V),52.8%
same,CPE inhibition,influenza A virus; dilution 1:4 of 0.005% (W/V),35.5%
same,CPE inhibition,influenza A virus; dilution 1:8 of 0.005% (W/V),23.1%
same,CPE inhibition,influenza A virus; dilution 1:16 of 0.005% (W/V),9.1%
same,active-ingredient concentration at which no effects which reduce the metabolism of the cells arise (non-cytotoxic concentration),MDCK cells,0.005 % (W/V)
